Measured values reported in patent US11807693B2 (priority 2014, dated 2023).
Starred links: 1 amine or outer side, 2 acyl side, 3 side chain; linkers in the order of their positions; H or OH if unused. Non-standard residues stand in square brackets, D forms with d. Residues, ends and D or L forms follow the SMILES beside them. ξ: configuration not given here. *: point of attachment. Oic = O=C(O)[C@@H]1C[C@@H]2CCCC[C@@H]2N1; Phe(4-Cl) = N[C@@H](Cc1ccc(Cl)cc1)C(=O)O; γGlu = O=C(O)[C@H](CCC(=O)[*:2])N[*:1]; d(β3hF) = N[C@@H](CC(=O)O)Cc1ccccc1; NMeR = CN[C@@H](CCCNC(=N)N)C(=O)O; Tridecanoyl = CCCCCCCCCCCCC(=O)*; hArg = N=C(N)NCCCC[C@H](N)C(=O)O; Cha = N[C@@H](CC1CCCCC1)C(=O)O; Gly(N-CH2CH2OH) = O=C(O)CNCCO; αMeP = C[C@@]1(C(=O)O)CCCN1; β3hV = CC(C)[C@H](N)CC(=O)O; Pip = O=C(O)[C@@H]1CCCCN1; Nle = CCCC[C@H](N)C(=O)O; ξαMeP = CC1(C(=O)O)CCCN1; ξβ3hV = CC(C)C(N)CC(=O)O; AEEA = NCCOCCOCC(=O)O; Aib = CC(C)(N)C(=O)O

Legend:
Type in all cases: in vitro ADME
[1] = In vitro stability in rat plasma
Method in brief: (§1)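 Apelin peptides were spiked at 5 μM final into rat plasma, liver homogenate or kidney homogenate and incubated at 37° C. for up to 4 hr. Aliquots were quenched with MeOH containing internal standard, centrifuged, and supernatants analyzed by high resolution LC-MS.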

[2] = In vitro stability in rat kidney homogenate; settings: rat, tissue homogenate
Experimental: Apelin peptides were spiked into rat plasma, liver homogenate, and kidney homogenate, which were obtained from commercial sources, to a final concentration of 5 μM. The samples were then incubated at 37° C. over a period of 4 hr. […] In a typical experiment, an aliquot of 100 μL of sample was taken from the incubation vial, followed by addition of 300 μL of MeOH containing internal standard. The quenched sample was centrifuged at 5500 g for 15 min after 15 min vortex in room temperature. The supernatant was then analyzed by high resolution LC-MS. […] In vitro plasma, […], and kidney stability results are shown below in Table 14.

[3] = In vitro stability in rat liver homogenate; settings: tissue homogenate
Method in brief: as §1

remaining at 4 h, 5 μM [1] [%] | remaining at 4 h, 5 μM [2] [%] | remaining at 4 h, 5 μM [3] [%] | SMILES
88 | < 1 | 9 | CCCCCCCCCCCCC(=O)N[C@@H](CCC(=O)NCCOCCOCC(=O)NCCOCCOCC(=O)N[C@@H](CCCCNC(=N)N)C(=O)N[C@@H](CCC(N)=O)C(=O)N[C@@H](CCCCNC(=N)N)C(=O)N1CCC[C@H]1C(=O)N[C@@H](CCCCNC(=N)N)C(=O)N[C@@H](CC1CCCCC1)C(=O)N[C@@H](CO)C(=O)N[C@@H](Cc1c[nH]cn1)C(=O)N[C@@H](CCCCN)C(=O)NCC(=O)N1[C@H](C(=O)N[C@@H](CCCC)C(=O)N2CCC[C@H]2C(=O)N[C@@H](Cc2ccc(Cl)cc2)C(=O)O)C[C@@H]2CCCC[C@@H]21)C(=O)O [compound 490] ({Tridecanoyl-γGlu-AEEA-AEEA}-[hArg]Q[hArg]P[hArg][Cha]SHKG[Oic][Nle]P[Phe(4-Cl)]-OH)
86 | < 1 | 3 | CCCCCCCCCCCCCCCCC(=O)N[C@@H](CCC(=O)NCCOCCOCC(=O)NCCOCCOCC(=O)N[C@@H](CCC(N)=O)C(=O)N[C@@H](CCCNC(=N)N)C(=O)N1CCC[C@H]1C(=O)N(C)[C@@H](CCCNC(=N)N)C(=O)N[C@@H](CC(C)C)C(=O)N[C@@H](CO)C(=O)N[C@@H](Cc1c[nH]cn1)C(=O)N[C@@H](CCCCN)C(=O)NCC(=O)N1CCC[C@H]1C(=O)N[C@@H](CCCC)C(=O)N1CCC[C@H]1C(=O)N[C@@H](Cc1ccc(Cl)cc1)C(=O)O)C(=O)O [compound 496]
> 90 | 23 | > 90 | CCCCCCCCCCCCC(=O)N[C@@H](CCC(=O)NCCOCCOCC(=O)NCCOCCOCC(=O)N[C@H](CCC(N)=O)C(=O)N[C@@H](CCCNC(=N)N)C(=O)N1CCC[C@H]1C(=O)N(C)[C@@H](CCCNC(=N)N)C(=O)N[C@@H](CC1CCCCC1)C(=O)N[C@@H](CO)C(=O)N[C@@H](Cc1c[nH]cn1)C(=O)N[C@@H](CCCCN)C(=O)NCC(=O)N1CCC[C@@]1(C)C(=O)N[C@@H](CCCC)C(=O)NC(C)(C)C(=O)N[C@@H](Cc1ccc(Cl)cc1)C(=O)O)C(=O)O [compound 498] ({Tridecanoyl-γGlu-AEEA-AEEA}-[dQ]RP[NMeR][Cha]SHKG[αMeP][Nle][Aib][Phe(4-Cl)]-OH)
> 90 | 19 | 34 | CCCCCCCCCCCCC(=O)N[C@@H](CCC(=O)NCCOCCOCC(=O)NCCOCCOCC(=O)N[C@H](CCC(N)=O)C(=O)N[C@@H](CCCNC(=N)N)C(=O)N1CCC[C@@]1(C)C(=O)N[C@@H](CCCCNC(=N)N)C(=O)N[C@H](CC(=O)N[C@@H](CO)C(=O)N[C@@H](Cc1c[nH]cn1)C(=O)N[C@@H](CCCCN)C(=O)NCC(=O)N1[C@H](C(=O)N[C@@H](CCCC)C(=O)N2CCC[C@@]2(C)C(=O)N[C@@H](Cc2ccc(Cl)cc2)C(=O)O)C[C@@H]2CCCC[C@@H]21)C(C)C)C(=O)O [compound 502] ({Tridecanoyl-γGlu-AEEA-AEEA}-[dQ]R[αMeP][hArg][β3hV]SHKG[Oic][Nle][αMeP][Phe(4-Cl)]-OH)
85 | 2 | 7 | CCCCCCCCCCCCC(=O)N[C@@H](CCC(=O)NCCOCCOCC(=O)NCCOCCOCC(=O)N[C@H](CCC(N)=O)C(=O)N[C@@H](CCCNC(=N)N)C(=O)N1CCC[C@@]1(C)C(=O)N[C@@H](CCCCNC(=N)N)C(=O)N[C@H](CC(=O)N[C@@H](CO)C(=O)N[C@@H](Cc1c[nH]cn1)C(=O)N[C@@H](CCCCN)C(=O)NCC(=O)N1CCCC[C@H]1C(=O)N[C@@H](CCCC)C(=O)N1CCC[C@@]1(C)C(=O)N[C@@H](Cc1ccc(Cl)cc1)C(=O)O)C(C)C)C(=O)O [compound 503] ({Tridecanoyl-γGlu-AEEA-AEEA}-[dQ]R[αMeP][hArg][β3hV]SHKG[Pip][Nle][αMeP][Phe(4-Cl)]-OH)
> 90 | 4 | 11 | CCCCCCCCCCCCC(=O)N[C@@H](CCC(=O)NCCOCCOCC(=O)NCCOCCOCC(=O)N[C@H](CCC(N)=O)C(=O)N[C@@H](CCCNC(=N)N)C(=O)N1CCCC1(C)C(=O)N[C@@H](CCCCNC(=N)N)C(=O)NC(CC(=O)N[C@@H](CO)C(=O)N[C@@H](Cc1c[nH]cn1)C(=O)N[C@@H](CCCCN)C(=O)NCC(=O)N1CCCC1(C)C(=O)N[C@@H](CCCC)C(=O)N1CCCC1(C)C(=O)N[C@@H](Cc1ccc(Cl)cc1)C(=O)O)C(C)C)C(=O)O (stereo partly drawn) [compound 504]

The next lines start with the compound.

SMILES | remaining at 4 h, 5 μM [1] [%] | remaining at 4 h, 5 μM [2] [%] | remaining at 4 h, 5 μM [3] [%]
CCCCCCCCCCCCC(=O)N[C@@H](CCC(=O)NCCOCCOCC(=O)NCCOCCOCC(=O)N[C@@H](CCC(N)=O)C(=O)N[C@@H](CCCNC(=N)N)C(=O)N1CCC[C@H]1C(=O)N(C)[C@@H](CCCNC(=N)N)C(=O)N[C@@H](CC1CCCCC1)C(=O)N[C@@H](CO)C(=O)N[C@@H](Cc1c[nH]cn1)C(=O)N[C@@H](CCCCN)C(=O)NCC(=O)N1[C@H](C(=O)N[C@@H](CCCC)C(=O)N2CCC[C@H]2C(=O)N[C@@H](CC(=O)O)Cc2ccccc2)C[C@@H]2CCCC[C@@H]21)C(=O)O [compound 380] ({Tridecanoyl-γGlu-AEEA-AEEA}-QRP[NMeR][Cha]SHKG[Oic][Nle]P[d(β3hF)]-OH) | 97 | 1 | 2
CCCCCCCCCCCCC(=O)N[C@@H](CCC(=O)NCCOCCOCC(=O)NCCOCCOCC(=O)N[C@@H](CCC(N)=O)C(=O)N[C@@H](CCCNC(=N)N)C(=O)N1CCC[C@H]1C(=O)N(C)[C@@H](CCCNC(=N)N)C(=O)N[C@@](C)(CC(C)C)C(=O)N[C@@H](CO)C(=O)N[C@@H](Cc1c[nH]cn1)C(=O)N[C@@H](CCCCN)C(=O)NCC(=O)N1CCC[C@@]1(C)C(=O)N[C@@H](CCCC)C(=O)N1CCC[C@H]1C(=O)N[C@@H](Cc1ccc(Cl)cc1)C(=O)O)C(=O)O [compound 387] | 73 | 1 | 4
CCCCCCCCCCCCC(=O)N[C@@H](CCC(=O)NCCOCCOCC(=O)NCCOCCOCC(=O)N[C@@H](CCC(N)=O)C(=O)N[C@@H](CCCNC(=N)N)C(=O)N1CCC[C@H]1C(=O)N(C)[C@@H](CCCNC(=N)N)C(=O)N[C@H](CC(=O)N[C@@H](CO)C(=O)N[C@@H](Cc1c[nH]cn1)C(=O)N[C@@H](CCCCN)C(=O)NCC(=O)N1[C@H](C(=O)N[C@@H](CCCC)C(=O)N2CCC[C@H]2C(=O)N[C@@H](Cc2ccc(Cl)cc2)C(=O)O)C[C@@H]2CCCC[C@@H]21)C(C)C)C(=O)O [compound 391] ({Tridecanoyl-γGlu-AEEA-AEEA}-QRP[NMeR][β3hV]SHKG[Oic][Nle]P[Phe(4-Cl)]-OH) | 2 | 2 | 5
CCCCCCCCCCCCC(=O)N[C@@H](CCC(=O)NCCOCCOCC(=O)NCCOCCOCC(=O)N[C@@H](CCC(N)=O)C(=O)N[C@@H](CCCNC(=N)N)C(=O)N1CCCC1(C)C(=O)N[C@@H](CCCCNC(=N)N)C(=O)NC(CC(=O)N[C@@H](CO)C(=O)N[C@@H](Cc1c[nH]cn1)C(=O)N[C@@H](CCCCN)C(=O)NCC(=O)N1[C@H](C(=O)N[C@@H](CCCC)C(=O)N2CCC[C@H]2C(=O)N[C@@H](Cc2ccc(Cl)cc2)C(=O)O)C[C@@H]2CCCC[C@@H]21)C(C)C)C(=O)O (stereo partly drawn) [compound 392] ({Tridecanoyl-γGlu-AEEA-AEEA}-QR[ξαMeP][hArg][ξβ3hV]SHKG[Oic][Nle]P[Phe(4-Cl)]-OH) | 73 | < 1 | 82
CCCCCCCCCCCCC(=O)N[C@@H](CCC(=O)NCCOCCOCC(=O)NCCOCCOCC(=O)N[C@H](CC(=O)N[C@@H](CCCNC(=N)N)C(=O)N1CCC[C@H]1C(=O)N(C)[C@@H](CCCNC(=N)N)C(=O)N[C@@H](CC1CCCCC1)C(=O)N[C@@H](CO)C(=O)N[C@@H](Cc1c[nH]cn1)C(=O)N[C@@H](CCCCN)C(=O)NCC(=O)N1[C@H](C(=O)N[C@@H](CCCC)C(=O)N2CCC[C@H]2C(=O)N[C@@H](Cc2ccc(Cl)cc2)C(=O)O)C[C@@H]2CCCC[C@@H]21)C(C)C)C(=O)O [compound 393] ({Tridecanoyl-γGlu-AEEA-AEEA}-[β3hV]RP[NMeR][Cha]SHKG[Oic][Nle]P[Phe(4-Cl)]-OH) | > 90 | 2 | 12
CCCCCCCCCCCCC(=O)N[C@@H](CCC(=O)NCCOCCOCC(=O)NCCOCCOCC(=O)N[C@@H](CCC(N)=O)C(=O)N[C@@H](CCCNC(=N)N)C(=O)N1CCC[C@H]1C(=O)N(C)[C@@H](CCCNC(=N)N)C(=O)N[C@@H](CC1CCCCC1)C(=O)N[C@@H](CO)C(=O)N[C@@H](Cc1c[nH]cn1)C(=O)N[C@@H](CCCCN)C(=O)NCC(=O)N1[C@H](C(=O)N[C@@H](CCCC)C(=O)N2CCC[C@@]2(C)C(=O)N[C@@H](Cc2ccc(Cl)cc2)C(=O)O)C[C@@H]2CCCC[C@@H]21)C(=O)O [compound 412] ({Tridecanoyl-γGlu-AEEA-AEEA}-QRP[NMeR][Cha]SHKG[Oic][Nle][αMeP][Phe(4-Cl)]-OH) | 77 | 3 | 76
CCCCCCCCCCCCC(=O)N[C@@H](CCC(=O)NCCOCCOCC(=O)NCCOCCOCC(=O)N[C@@H](CCC(N)=O)C(=O)N[C@@H](CCCNC(=N)N)C(=O)N1CCC[C@H]1C(=O)N(C)[C@@H](CCCNC(=N)N)C(=O)N[C@@H](CC(C)C)C(=O)N(CCO)CC(=O)N[C@@H](Cc1c[nH]cn1)C(=O)N[C@@H](CCCCN)C(=O)NCC(=O)N1CCC[C@H]1C(=O)N[C@@H](CCCC)C(=O)N1CCC[C@H]1C(=O)N[C@@H](Cc1ccc(Cl)cc1)C(=O)O)C(=O)O [compound 467] ({Tridecanoyl-γGlu-AEEA-AEEA}-QRP[NMeR]L[Gly(N-CH2CH2OH)]HKGP[Nle]P[Phe(4-Cl)]-OH) | 27 | 83 | 87
